We go through eleven compounds from US5296604A, “Proline derivatives and compositions for their use as inhibitors of HIV protease” (priority 1992, dated 1994).

Where two headings read alike, the source gives them in different places. Some results are limits rather than exact numbers.

This experiment concerns the target T1, HIV protease (Human immunodeficiency virus type 1 group M subtype B, UniProt P03366).
T1 construct: the predicted size of the protease is 99 amino acids
The experiment in a line: HIV protease inhibition, fluorometric RP-HPLC assay with N-dansyl-peptide substrate. It is filed as biochemical. To be noted: for HIV Protease IC50 values of tested Examples (estimated): *Estimated IC50 from the observed inhibition at 10 μM concentration; for IC50 (estimated): estimated from the % inhibition at 10000 nM final; for inhibitory potency (in words): comparison by stereochemistry (2S,3S versus 2R,3R) and by hexan-1-olyl versus hexanoate group; for activity relative to range necessary for therapeutic development: in words. The protocol:
Following synthesis, the preferred embodiment compounds were tested for HIV protease inhibition. For in vitro potency testing, the N terminus of substrate amino acid sequences were first dansylated. The amino acid sequences present in such N-dansyl-peptide substrates can include, but are not limited to native proteolytic cleavage site sequences for the HIV gag and pol polyproteins.
The prepared substrates were incubated with HIV protease and compounds of the present invention, under conditions in which the protease is catalytically active. […] Following incubation, aliquots of the incubate were analyzed with reverse phase high performance liquid chromatography (hereinafter "RP-HPLC"). Any uncoverted peptide substrate is resolved from peptide product(s) and then detected by an inline fluorescence monitor. The amount of product formed over a known time interval may then be used to calculate the activity of the enzyme under the specific assay conditions. The amount of fluorescence detected in the eluted peak from HPLC can be related to the amount of peptide in the peak by prior HPLC analysis of standardized samples. The amount of peptide in the pure, standardized samples is determined accurately by amino acid analysis.
Inhibitory potency was assessed, in vitro, according to published procedures in Tamburini et al., 1990, "A Fluorometric Assay for HIV-Protease Activity Using High-Performance Liquid Chromatography", Analytical Biochemistry, 186:363.
HIV-protease was pre-incubated with or without the inhibitor compound at 37° C. and under buffer, ionic strength and pH conditions affording optimal protease activity. An N-dansyl-peptide substrate was then added to the incubation mixture. For example the dansylated substrate could be:
N-Dansyl-Ser-Gln-Asn-Tyr-Pro-Ile-Val (SEQ ID NO: 1)
The incubation mixture was then incubated at 37° C. During the incubation, the substrate is cleaved by the protease at the Tyr-Pro peptide bond to yield N-Dansyl-Ser-Gln-Asn-Tyr (SEQ ID NO: 2). At the end of the incubation (40 min) the reaction was terminated by acidification with TFA, and the amounts of unconverted substrate and fluorescent product were detected and quantified by subsequent RP-HPLC analysis with post column fluorescence detection.
The rate of cleavage of the substrate is quantified from the amount of product formed in the known incubation time. Specific assay conditions were as follows:
Incubations (75 ul) containing the complete system without substrate were preincubated at 37° C. for 15 min prior to initiation of the protease reaction by the addition of 25 ul of stock 400 uM substrtate peptide solution. The initial component concentrations at the start of the reaction were: HIV-protease (20 ul of a dilution sufficient to produce 40 to 60% substrate cleavage in 40 min), dimethyl sulphoxide (5%v/v), N-Dansyl-Ser-Gln-Asn-Tyr- […] (SEQ ID NO: 1) (100 uM), and sodium chloride (3 M) in 150 mM mes buffer pH 6.0. After a further incubation time of 40 min at 37° C. reactions were terminated by the addition of 50 ul of 12% (v/v) tri-flouroacetic acid, and then loaded into the HPLC autosampler for analysis.
Inhibitors were added to the incubation mixtures […] to protease addition before the preincubation, as stock solutions in dimethyl suphoxide, lower concentrations of inhibitor were obtained by serial dilution of the incubation mixture containing the highest inhibitor concentration. The range of inhibitor concentrations were designed to cover the range yielding zero to 100% inhibition of protease activity. Dilution of the HIV-protease activity (so as to achieve an amount of enzyme activity in 20 ul to produce 40 to 60% substrate conversion when added to the incubation) was achieved using the following buffer: 50 mM sodium acetate buffer pH 5.2, 50 mM sodium chloride, 20 mM DL-dithiothreitol, 20% (v/v) glycerol, 0.1% (v/v) triton X-100 and 1.5 M urea. […]

Where [1] appears, read: Table I, NI = no inhibition at 10 μM final concentration, 37 °C, 40 min, pH 6.0, read-out: HIV Protease IC50 values of tested Examples.
The mark [2] stands for this setting: Table II, titrated (Dixon plot, inhibitor up to 100-10000 nM), NI = no inhibition (tested at 10000 nM), read-out: IC50 (concentration in the assay incubation which inhibits the HIV protease activity by 50%).

With `CC[C@H](C)[C@H](NC(=O)[C@@H]1CCCN1[C@H](C(=O)OC)[C@H](CC(C)C)NC(=O)[C@H](CC(N)=O)NC(=O)OCc1ccccc1)C(=O)NCc1ccccc1` [Example 11b], the “HIV Protease IC50 values of tested Examples (estimated)” value (“HIV Protease IC50 values” for short) (Table I) was 15 µM. Moreover, the “IC50 (estimated)” value (Table II) was 15 µM.
Take `CC[C@H](C)[C@H](NC(=O)[C@@H]1CCCN1[C@H](CO)[C@H](CC(C)C)NC(=O)OCc1ccccc1)C(=O)NCc1ccccc1` [Example 9, (2S, 3S) N-[2-(3-carbobenzyoxyamino-5-methylhexan-1-olyl)]-Prolyl-Isoleucine N-Benzyl amide]: the “inhibitory potency (in words)” value is on record as “significant inhibitor potency”. Moreover, the IC50 under setting [1] came to 1.9 µM.
For `CC[C@H](C)[C@H](NC(=O)[C@@H]1CCCN1[C@H](C(=O)OC)[C@H](CC(C)C)NC(=O)[C@H](CC#N)NC(=O)OCc1ccccc1)C(=O)NCc1ccccc1` [Example 11a], the IC50 reads like this: under setting [1], greater than 10 µM; under setting [2], greater than 10 µM.
On to `CC[C@H](C)[C@H](NC(=O)[C@@H]1CCCN1[C@@H](C(=O)OC)[C@@H](CC(C)C)NC(=O)[C@H](CC(N)=O)NC(=O)c1ccc2ccccc2n1)C(=O)NCc1ccccc1` [Example 16, (2R, 3R) N-[2 (3-(N-guinaldyl-asparaginyl)amino-5-methyl-hexanoate)]-Prolyl-Isoleucine N-Benzyl amide], for which the IC50 is greater than 10 µM under setting [1] and greater than 10 µM under setting [2].
With `CC[C@H](C)[C@H](NC(=O)[C@@H]1CCCN1[C@H](CO)[C@H](CC(C)C)NC(=O)[C@H](CC(N)=O)NC(=O)OCc1ccccc1)C(=O)NCc1ccccc1` [Example 12, (2S, 3S) N-[2-(3-(N-carbobenzyloxy-asparaginyl)amino-5-methylhexan-1-olyl)]-Prolyl-Isoleucine N-Benzyl amide], the “inhibitory potency (in words)” value was “significant inhibitor potency” and the “activity relative to range necessary for therapeutic development” value is on record as “within the range necessary for therapeutic development”. In addition, where the note is “Example 12 versus Example 9”, the “increase in inhibitory potency by additional Asn residue” value stood at 152 fold. Moreover, the IC50 under setting [1] was determined as 0.125 µM.
Turning to `CC[C@H](C)[C@H](NC(=O)[C@@H]1CCCN1[C@H](CO)[C@H](CC(C)C)NC(=O)[C@H](CC(N)=O)NC(=O)c1ccc2ccccc2n1)C(=O)NCc1ccccc1` [Example 15], the “inhibitory potency (in words)” value was “significant inhibitor potency” and the “activity relative to range necessary for therapeutic development” value is on record as “within the range necessary for therapeutic development”. In addition, the “increase in inhibitory potency by N-quinaldehyde in place of N-carbo-benzyloxy” value (Example 15 versus Example 12) was 3.6 fold. In addition, the IC50 under setting [1] came out at 0.035 µM.
Turning to `CC[C@H](C)[C@H](NC(=O)[C@@H]1CCCN1[C@H](C(=O)OC)[C@H](CC(C)C)NC(=O)[C@H](CC(N)=O)NC(=O)c1ccc2ccccc2n1)C(=O)NCc1ccccc1` [Example 14], for the setting “Table I”, the “HIV Protease IC50 values” value was greater than 50 µM. For the same compound, for the setting “Table II”, the “IC50 (estimated)” value is greater than 50 µM.
On to `CC[C@H](C)[C@H](NC(=O)[C@@H]1CCCN1[C@H](C(=O)OC)[C@H](CC(C)C)NC(=O)OCc1ccccc1)C(=O)NCc1ccccc1` [Example 7, (2S, 3S) N-[methyl 2-(3-carbobenzyloxyamino-5-methyl-hexanoyl)]-Prolyl-Isoleucine N-Benzyl amide], for which the IC50 was greater than 10 µM under setting [1] and greater than 10 µM under setting [2].
As to `CC[C@H](C)[C@H](NC(=O)[C@@H]1CCCN1[C@@H](C(=O)OC)[C@@H](CC(C)C)NC(=O)OCc1ccccc1)C(=O)NCc1ccccc1` [Example 8], the IC50 was greater than 10 µM under setting [1] and greater than 10 µM under setting [2].
Consider `CC[C@H](C)[C@H](NC(=O)[C@@H]1CCCN1[C@@H](CO)[C@@H](CC(C)C)NC(=O)[C@H](CC(N)=O)NC(=O)c1ccc2ccccc2n1)C(=O)NCc1ccccc1` [Example 17, (2R, 3R) N-[2-(3-(N-guinaldyl-asparaginyl)amino-5-methylhexan-1-olyl)]-Prolyl-Isoleucine N-Benzyl amide], for which the “inhibitory potency (in words)” value is reported as “innactive or poorly active”. Besides, the “HIV Protease IC50 values” value (Table I) was 15 µM. Besides, the “IC50 (estimated)” value (Table II) is 15 µM.
Consider `CC[C@H](C)[C@H](NC(=O)[C@@H]1CCCN1[C@@H](CO)[C@@H](CC(C)C)NC(=O)OCc1ccccc1)C(=O)NCc1ccccc1` [Example 10], for which the “inhibitory potency (in words)” value was “innactive or poorly active”. Further, under setting [1], the IC50 is greater than 10 µM. In addition, under setting [2], the IC50 was greater than 10 µM.
